Assay results: PubChem BioAssay AID1996
Converted amounts (≈) assume the structure as drawn.

Conditions: buffer; pH 7.4; 200.0 µM

Structure (SMILES) | solubility kinetic [µg/mL]
CCOc1ccc2[nH]c3c(NCC(C)C)ncnc3c2c1 | 5.1 (≈ 17.9 µM)
CC(=O)Nc1ccc(N2C(=O)CSC2c2ccccc2[N+](=O)[O-])cc1 (stereo not given) | 41.1 (≈ 115 µM)
Cc1ccc(S(=O)(=O)/N=C(/c2ccc(F)cc2)N(C)C)cc1 | > 48.1
c1ccc2c(CN3CCCCC3)c[nH]c2c1 | > 32.1
COC(=O)c1ccc(C)c(NC(=O)CCCN2C(=O)CN(C)C2=O)c1 | > 52.1
O=C(Nc1ccccc1-c1ccccc1)C1CCCC1 | 32.4 (≈ 122 µM)
CCC(=O)c1ccc(OCC(=O)N2CCN(CC(=O)Nc3ccc(C)cc3)CC2)cc1 | > 63.5
COc1ccc(-c2cc(C(=O)NCc3cccs3)no2)cc1 | 0.3 (≈ 0.954 µM)
CN1C(C(=O)Nc2ccccn2)=C(O)c2sc(Cl)cc2S1(=O)=O | 15.5 (≈ 41.7 µM)
Cc1ccc([N+](=O)[O-])cc1NC(=O)C1CCCC1 | 9.4 (≈ 37.9 µM)
Cc1cc(C(=O)COc2cc(F)ccc2[N+](=O)[O-])c(C)n1CC1CCCO1 (stereo not given) | 34.4 (≈ 91.4 µM)
c1ccc2[nH]c(CCCCc3nc4ccccc4[nH]3)nc2c1 | 43.4 (≈ 149 µM)
O=C(NC1CCCc2ccccc21)c1ccccc1OC(F)F (stereo not given) | 15.5 (≈ 48.8 µM)
CC(=O)c1ccn(S(=O)(=O)c2ccc(Cl)cc2)c1 | 33.9 (≈ 119 µM)
Cc1ccc(C)c(N2CCN(c3ncccc3[N+](=O)[O-])CC2)c1 | 1.1 (≈ 3.52 µM)
COC(OC)c1ccnc(-c2ccc(OC(C)=O)cc2)n1 | > 43.2
O=C(CN1C(=O)c2ccccc2S1(=O)=O)NCc1ccco1 | > 48
CCOC(=O)Cc1nc2nc(C)cc(C)n2n1 | > 35.1
O=C(CCCOc1ccccc1)NNC(=O)c1ccncc1 | > 44.9
CC(C)NC(=O)NC(=O)COC(=O)C1(C)CC1(Cl)Cl (stereo not given) | > 46.7

Structure (SMILES) | solubility kinetic [µg/mL]
Cc1c(C(=O)NCC(c2ccco2)N2CCCC2)sc2ccccc12 (stereo not given) | > 53.2
CC(=O)c1cccc(NC(=O)N2CCC(NC(=O)c3ccco3)CC2)c1 | 51.6 (≈ 145 µM)
COc1ccccc1CNC(=O)c1ccc(Cl)c(S(=O)(=O)N2CCCC2)c1 | 17.9 (≈ 43.8 µM)
CN(CC(=O)NC1CC1)S(=O)(=O)c1cc(Cl)ccc1Cl | > 50.6
CCN1CCN(C(=S)NC(=O)c2cccs2)CC1 | > 42.5
Cc1cc(C(=O)COC(=O)Cc2ccc(Cl)cc2)c(C)n1C | 21.3 (≈ 66.6 µM)
O=C(c1c(F)cccc1F)N(Cc1ccccc1)Cc1ccccc1 | 8.4 (≈ 24.9 µM)
CCn1c(SCc2ccccc2)nc2c(c1=O)SCC2 | 13.5 (≈ 44.3 µM)
O=C(NCc1cccnc1)c1ccc(Br)s1 | > 44.6
CC(OC(=O)c1cc(S(=O)(=O)N2CCOCC2)ccc1F)C(=O)NCC1CCCCC1 (stereo not given) | > 68.5
CCc1ccc(S(=O)(=O)NC2CCCCNC2=O)cc1 (stereo not given) | > 44.5
Cc1cc(C(=O)NCc2ccccc2Cl)c2ccccc2n1 | 4.1 (≈ 13.2 µM)
O=Cc1ccc(Oc2nc(Cl)ncc2F)cc1 | 36.8 (≈ 146 µM)
N/C(=N\OC(=O)c1cccc(F)c1)c1ccccn1 | 37.4 (≈ 144 µM)
c1coc(CNc2nc3ccccc3s2)c1 | 32.3 (≈ 140 µM)
CCn1cnnc1SCC(=O)Nc1ccccc1C(=O)NC1CC1 | > 51.8
CC(OC(=O)C1CC1)C(=O)Nc1cc(Cl)cc(Cl)c1 (stereo not given) | > 45.3
Cc1ccc(NCc2ccc([N+](=O)[O-])s2)cc1 | 13.7 (≈ 55.2 µM)
CC(=O)Nc1ccc(S(=O)(=O)NC2CCCCCC2)cc1 | 35.1 (≈ 113 µM)
CCCS(=O)(=O)c1cnc(C2COc3ccccc3O2)nc1N (stereo not given) | 12.7 (≈ 37.9 µM)

Structure (SMILES) | solubility kinetic [µg/mL]
Cc1ccc(Sc2ncccc2NC(=O)c2ccccc2Cl)cc1 | 2 (≈ 5.64 µM)
COc1ccc(C(=O)N2CCCN(C)CC2)c(OC)c1 | 36.5 (≈ 131 µM)
Oc1ccc(CCC2CCCCN2Cc2nc(C3CC3)no2)cc1 (stereo not given) | > 49.1
N#Cc1ccccc1NC(=O)Nc1ccccc1 | > 35.6
COC(=O)/C=C1/SC(=Nc2ccc(Cl)c(Cl)c2)NC1=O | 1 (≈ 3.02 µM)
Cc1ccc(S(=O)(=O)Nc2ccccc2N2CCCCC2)cc1 | 3.1 (≈ 9.38 µM)
O=C(O)c1cc(S(=O)(=O)N2CC3CC3C2C(=O)O)c(Cl)cc1Cl (stereo not given) | 52.3 (≈ 138 µM)
CC(=O)c1ccc2noc(-c3cccc(F)c3)c2c1 | 6.5 (≈ 25.5 µM)
Cc1nc2ccc([N+](=O)[O-])cc2c(=O)n1Cc1ccc([N+](=O)[O-])cc1 | 2.5 (≈ 7.35 µM)
CCOC(=O)C1CCN(Cc2ccc(O)c3ncccc23)CC1 | 1.6 (≈ 5.09 µM)
O=C(NCc1cnn(-c2ccccc2)c1)C1CCC(=O)N(C2CC2)C1 (stereo not given) | > 50.8
COc1ccc(NC(=O)CCNC(=O)c2ccco2)c(OC)c1 | > 47.7
COc1cc(C(C)=O)ccc1OCC(=O)NCC(c1ccc(F)cc1)N1CCOCC1 (stereo not given) | > 64.6
CN1C(=S)SC(/[N+]([O-])=C\c2ccccc2F)C1(C)C (stereo not given) | > 44.8
O=C1CN(C(=O)NCC(=O)N2CCCC2)c2ccccc2N1 | > 45.3
COC(=O)C1=C(C)N(C)C(=O)NC1c1c(O)ccc2ccccc12 (stereo not given) | > 49
O=C(CN1C(=O)c2ccccc2C1=O)N1CCN=C1c1ccccc1 | > 50
COc1ccc(CCC(=O)NCC2CCCCC2)cc1OC | > 45.8
O=C(COC(=O)CCSc1ccccc1)NCc1ccccc1 | > 49.4
CN1CCN(NC(=O)c2ccc(Cl)s2)CC1 | > 39
